Experiments:
[1] = biological target: T1, interleukin-2-inducible T cell kinase (ITK) (Homo sapiens, UniProt Q08881); assay: ELISA kinase activity assay with purchased ITK protein (MilliporeSigma #[…]-660); assay type: biochemical
T1 sequence (Q08881 1-620): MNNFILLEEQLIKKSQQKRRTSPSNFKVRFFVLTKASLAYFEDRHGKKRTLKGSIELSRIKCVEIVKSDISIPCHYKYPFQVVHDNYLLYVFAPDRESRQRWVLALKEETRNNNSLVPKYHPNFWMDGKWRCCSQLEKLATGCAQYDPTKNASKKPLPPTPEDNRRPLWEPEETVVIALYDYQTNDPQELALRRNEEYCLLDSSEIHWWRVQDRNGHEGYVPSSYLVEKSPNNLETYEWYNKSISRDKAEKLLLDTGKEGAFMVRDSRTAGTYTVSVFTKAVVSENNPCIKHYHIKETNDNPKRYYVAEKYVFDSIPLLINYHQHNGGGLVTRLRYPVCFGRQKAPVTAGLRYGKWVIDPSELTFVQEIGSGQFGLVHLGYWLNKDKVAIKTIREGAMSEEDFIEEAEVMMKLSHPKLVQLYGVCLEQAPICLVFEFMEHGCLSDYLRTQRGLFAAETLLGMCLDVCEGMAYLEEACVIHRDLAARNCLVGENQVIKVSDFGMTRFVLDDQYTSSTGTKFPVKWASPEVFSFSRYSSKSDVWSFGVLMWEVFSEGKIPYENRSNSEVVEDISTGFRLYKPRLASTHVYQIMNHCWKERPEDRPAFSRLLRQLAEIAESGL

[2] = biological target: Bruton’s tyrosine kinase (BTK) (Homo sapiens, UniProt Q06187); assay: ELISA kinase activity assay with purchased BTK protein (MilliporeSigma #[…]-552); assay type: biochemical
Sequence of Bruton’s tyrosine kinase (BTK) (Q06187 2-659): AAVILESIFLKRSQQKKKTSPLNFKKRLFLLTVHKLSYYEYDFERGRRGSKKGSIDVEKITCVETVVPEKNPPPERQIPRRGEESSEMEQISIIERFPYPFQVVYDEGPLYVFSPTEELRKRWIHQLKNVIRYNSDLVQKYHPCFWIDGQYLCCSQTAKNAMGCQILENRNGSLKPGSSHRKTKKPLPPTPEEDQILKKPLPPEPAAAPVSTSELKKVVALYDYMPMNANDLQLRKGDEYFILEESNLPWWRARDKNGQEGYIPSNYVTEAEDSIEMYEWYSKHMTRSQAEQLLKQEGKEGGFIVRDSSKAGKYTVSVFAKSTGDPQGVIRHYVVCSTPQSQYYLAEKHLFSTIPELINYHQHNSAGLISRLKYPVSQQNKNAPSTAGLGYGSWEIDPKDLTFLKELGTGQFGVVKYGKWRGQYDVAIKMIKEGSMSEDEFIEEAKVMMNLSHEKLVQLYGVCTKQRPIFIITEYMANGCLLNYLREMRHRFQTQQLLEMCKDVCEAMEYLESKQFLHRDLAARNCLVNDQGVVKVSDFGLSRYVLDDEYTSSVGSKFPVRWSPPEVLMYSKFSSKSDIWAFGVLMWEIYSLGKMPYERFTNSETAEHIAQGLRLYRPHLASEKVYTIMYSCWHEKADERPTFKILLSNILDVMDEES

Compound: C=CC(=O)Nc1cc(Nc2ncc(Cl)c(Nc3ccc4ccccc4c3)n2)c(OC)cc1N(C)CCN(C)C [ASK120067]
- IC50 [1]: 0.4 nM
- IC50 [2]: 2.1 nM

From publication PMC9799096, “ASK120067 potently suppresses B-cell or T-cell malignancies in vitro and in vivo by inhibiting BTK and ITK” (Frontiers in Pharmacology, 2022)
